Results: the RepoRT retention time repository

Assay: HILIC, Waters ACQUITY UPLC BEH Amide, 100 × 2.1 mm, 1.7 µm; A: water + 0.125% formic acid + 10 mM ammonium formate; B: 5% water + 95% acetonitrile + 0.125% formic acid + 10 mM ammonium formate; gradient (min/%B) 0/100 2/100 7.7/70 9.5/40 10.25/30 12.75/100 17/100
Conditions: stereoisomer not certain

| LC retention time [min] | SMILES |
| --- | --- |
| 0.99 | C#CC1(O)CCC2C3CCc4cc(O)ccc4C3CCC21C (configuration not stated) [Ethynylestradiol] |
| 1.27 | COc1cccc(C(=O)O)c1N [2-Amino-3-methoxybenzoic acid] |
| 1.69 | CCCCC(=O)N(Cc1ccc(-c2ccccc2-c2nn[nH]n2)cc1)C(C(=O)O)C(C)C (configuration not stated) [Valsartan] |
| 6.79 | CNC(Cc1ccc(O)cc1)C(=O)O (configuration not stated) [N-Methyltyrosine] |
| 1.53 | O=c1ccc2cccc(O)c2[nH]1 [2,8-Quinolinediol] |
| 8.97 | O=c1ccn(C2OC(COP(=O)(O)O)C(O)C2O)c(=O)[nH]1 (configuration not stated) [Uridine 5'-monophosphate] |
| 1.21 | NC(=O)N1c2ccccc2C=Cc2ccccc21 [Carbamazepine] |
| 4.49 | COc1cc(-c2oc3cc(O)cc(O)c3c(=O)c2OC2OC(CO)C(O)C(O)C2O)ccc1O (configuration not stated) [Isorhamnetin-3-glucoside] |
| 3.65 | CCn1cc(C(=O)O)c(=O)c2cc(F)c(N3CCN(C)CC3)cc21 [Pefloxacin] |
| 9.54 | NCCC(=O)NC(Cc1cnc[nH]1)C(=O)O (configuration not stated) [Carnosine] |
| 0.94 | CCOC(=O)C1=C(C)NC(C)=C(C(=O)OCC)C1c1ccccc1C=CC(=O)OC(C)(C)C [Lacidipine] |
| 7.01 | CC(=O)NC1C(O)OC(CO)C(O)C1O (configuration not stated) [N-Acetylmannosamine] |
| 8.31 | NC(Cc1ccc(O)c(O)c1)C(=O)O (configuration not stated) [3,4-Dihydroxyphenylalanine] |
| 7.18 | CCC(C)C(N)C(=O)O (configuration not stated) [Isoleucine] |
| 3.78 | Cc1ncc(CO)c(CO)c1O [Pyridoxine] |
| 6.19 | O=c1[nH]cnc2c1ncn2C1OC(CO)C(O)C1O (configuration not stated) [Inosine] |
| 4.99 | Cn1cc(C2OC(CO)C(O)C2O)c(=O)[nH]c1=O (configuration not stated) [1-Methylpseudouridine] |
| 8.31 | CC(=O)NC(CCCN)C(=O)O [N-alpha-Acetyl-L-ornithine] |
| 1.01 | O=C(C=Cc1ccccc1O)c1ccccc1 [2-Hydroxychalcone] |
| 1.35 | COc1cc(C(=O)O)cc(OC)c1O [Syringic acid] |
| 2.54 | CN(C)CCC(c1ccc(Cl)cc1)c1ccccn1 (configuration not stated) [Chlorpheniramine] |
| 6.9 | Nc1[nH]c(=O)ncc1CO [5-Hydroxymethylcytosine] |

| LC retention time [min] | SMILES |
| --- | --- |
| 2.89 | CN1CCc2cc(Cl)c(O)cc2C(c2ccccc2)C1 (configuration not stated) [UNII-UGT5535REQ] |
| 9.9 | NC(N)=NCCCC(N)C(=O)NC(CO)C(=O)O (configuration not stated) [Arg-Ser] |
| 2.18 | Cc1ncc(CO)c(C=O)c1O [Pyridoxal] |
| 2.84 | CCCCCN=C(N)NN=Cc1c[nH]c2ccc(OC)cc12 [Tegaserod] |
| 8.88 | Nc1ncnc2c1ncn2C1OC(CO)C(OP(=O)(O)O)C1O (configuration not stated) [Adenosine-3-monophosphate] |
| 1.07 | COc1cc(CNC(=O)CCCCCCC(C)C)ccc1O [Dihydrocapsaicin] |
| 9.3 | CC(C)C(NC(=O)C(N)CCCN=C(N)N)C(=O)O (configuration not stated) [Arg-Val] |
| 1.32 | COc1ccc(NC=O)c(C(=O)CCNC(C)=O)c1 [N-gamma-Acetyl-N-2-formyl-5-methoxykynurenamine] |
| 1.04 | CCCc1c(OCCCCc2nn[nH]n2)ccc(C(C)=O)c1O [Tomelukast] |
| 1.26 | COc1ccc(C=CC(=O)Nc2ccccc2C(=O)O)cc1OC [Tranilast] |
| 7.67 | CN(Cc1cnc2nc(N)nc(N)c2n1)c1ccc(C(=O)NC(CCC(=O)O)C(=O)O)cc1 (configuration not stated) [Methotrexate] |
| 8.55 | CSCCC(NC(=O)CCC(N)C(=O)O)C(=O)O (configuration not stated) [gamma-Glutamylmethionine] |
| 7.38 | NC(Cc1ccc(O)cc1)C(=O)NC(Cc1ccc(O)cc1)C(=O)O (configuration not stated) [Tyr-Tyr] |
| 2.99 | O=C(O)C=Cc1ccc(Cn2ccnc2)cc1 [Ozagrel] |
| 9.51 | NC(N)=NCCCC(N)C(=O)N1CCCC1C(=O)O (configuration not stated) [Arg-Pro] |
| 6.45 | CNC(CC(C)C)C(=O)O (configuration not stated) [N-Methylleucine] |
| 1.24 | CN(CCOc1ccc(CC2SC(=O)NC2=O)cc1)c1ccccn1 (configuration not stated) [Rosigltazone] |
| 5.59 | NC(N)=Nc1nc(CSCCC(N)=NS(N)(=O)=O)cs1 [Famotidine] |
| 8.74 | NC(=O)NCCCC(N)C(=O)O (configuration not stated) [Citrulline] |
| 1.29 | CC(C)C(O)C(=O)O (configuration not stated) [2-Hydroxy-3-methylbutyric acid] |
| 1.37 | CC(=O)n1ccnc1 [1-Acetylimidazole] |

Second part, the molecule before the results:

| SMILES | LC retention time [min] |
| --- | --- |
| CC(N=C(NC#N)Nc1ccncc1)C(C)(C)C (configuration not stated) [Pinacidil] | 1.49 |
| O=C1C(CCC(O)c2ccc(F)cc2)C(c2ccc(O)cc2)N1c1ccc(F)cc1 (configuration not stated) [Ezetimibe] | 1.03 |
| CC1OC(OC2C(CO)OC(OC3C(CO)OC(O)C(O)C3O)C(O)C2O)C(O)C(O)C1NC1C=C(CO)C(O)C(O)C1O (configuration not stated) [Acarbose] | 9.88 |
| CCN1CCCC1CNC(=O)c1cc(S(=O)(=O)CC)c(N)cc1OC (configuration not stated) [Amisulpride] | 2.76 |
| c1ncc2[nH]cnc2n1 [Purine] | 2.44 |
| CCCC=CC=O [2-Hexenal] | 1.39 |
| C=C1CCOC1=O [alpha-Methylene-gamma-butyrolactone] | 1.05 |
| CC1CC2C3CC(F)C4=CC(=O)C(Cl)=CC4(C)C3(F)C(O)CC2(C)C1(O)C(=O)CO (configuration not stated) [Halometasone] | 1.12 |
| O=C1CN=C(c2ccccn2)c2cc(Br)ccc2N1 [Bromazepam] | 1.3 |
| COc1ccc(C2CNC(=O)C2)cc1OC1CCCC1 (configuration not stated) [Rolipram] | 1.12 |
| CNCCCCOc1ccccc1Cc1ccccc1 [Bifemelane] | 2.46 |
| O=C1c2cccc3c2C(CCC3)CN1C1CN2CCC1CC2 (configuration not stated) [Palonosetron] | 4.05 |
| CCOC(=O)OC1(C(=O)OCCl)CCC2C3CCC4=CC(=O)C=CC4(C)C3C(O)CC21C (configuration not stated) [Loteprednol Etabonate] | 0.97 |
| CN1C(=O)CCC1c1ccc[n+]([O-])c1 [(S)-Cotinine N-oxide] | 3.87 |
| Nc1nc2c(ncn2C2CC(O)C(COP(=O)(O)O)O2)c(=O)[nH]1 (configuration not stated) [2'-Deoxyguanosine 5'-monophosphate] | 9.25 |
| C=CCC1(C(C)C#CCC)C(=O)NC(=O)N(C)C1=O (configuration not stated) [Methohexital] | 6.9 |
| NCCS [2-Aminoethanethiol] | 2.05 |
| CN(C)CCOC(c1ccccc1)c1ccccc1 [Diphenhydramine] | 2.15 |
| CCCC(=O)OCC [Ethylbutanoate] | 4.88 |
| CC1NCCOC1c1ccccc1 (configuration not stated) [Phenmetrazine] | 4.04 |
| CCOC(=O)c1cncn1C(C)c1ccccc1 (configuration not stated) [Etomidate] | 0.98 |
| N#CC(O)c1ccc(O)cc1 (configuration not stated) [4-Hydroxymandelonitrile] | 2.63 |
| O=C(O)CCCCCCCCCCCCCCCCC(=O)O [Octadecanedioic acid] | 1.24 |
| OCCOCCN1CCN(C2=Nc3ccccc3Sc3ccccc32)CC1 [Quetiapine] | 2.54 |
| CNCC(O)c1ccc(O)cc1 (configuration not stated) [Synephrine] | 5.67 |

| SMILES | LC retention time [min] |
| --- | --- |
| NCCCCNCCCN [Spermidine] | 6.98 |
| NCCc1ccc(O)cc1 [Tyramine] | 5.58 |
| COc1ccccc1N1CCN(CCCNc2cc(=O)n(C)c(=O)n2C)CC1 [Urapidil] | 4.58 |
| CCCCCCCCC=CCCCCCCCC(=O)OCC(O)CO (configuration not stated) [Monoolein] | 1.19 |
| CSc1ncnc2nc[nH]c12 [6-Methylmercaptopurine] | 1.49 |
| CS(=O)CCCCN=C=S (configuration not stated) [Sulforaphane] | 1.14 |
| Fc1ccc(C2CCNCC2COc2ccc3c(c2)OCO3)cc1 (configuration not stated) [Paroxetine] | 3.08 |
| CCN(CC)CC1CCCCN1CC(=O)N1c2ccccc2C(=O)Nc2cccnc21 (configuration not stated) [Otenzepad] | 2.94 |
| CCCCCCCCCCCCCCCCCC(=O)OC(CC(=O)O)C[N+](C)(C)C [Stearoyl-L-carnitine] | 2.96 |
| CC(=O)OC12COC1CC(O)C1(C)C(=O)C(O)C3=C(C)C(OC(=O)C(O)C(NC(=O)OC(C)(C)C)c4ccccc4)CC(O)(C(OC(=O)c4ccccc4)C21)C3(C)C (configuration not stated) [Docetaxel] | 1.34 |
| CC(=O)OCC=C(C)CCC=C(C)C [Nerylacetate] | 0.99 |
| CCCCCC(O)CC (configuration not stated) [3-Octanol] | 8.47 |
| O=C(c1ccc(F)cc1)C1CCN(CCn2c(=S)[nH]c3ccccc3c2=O)CC1 [Altanserin] | 2.64 |
| CCCN1CC(CSC)CC2c3cccc4[nH]cc(c34)CC21 (configuration not stated) [Pergolide] | 2.41 |
| Nc1ccn(C2CCC(CO)O2)c(=O)n1 (configuration not stated) [2,3-Dideoxycytidine] | 4.54 |
| C=Cc1ccccc1 [Styrene] | 8.74 |
| O=C1CCc2ccc(OCCCCN3CCN(c4cccc(Cl)c4Cl)CC3)cc2N1 [Aripiprazole] | 3.14 |
| NC(=O)NC(N)=O [Biuret] | 2.73 |
| CNC1CC(c2ccc(Cl)c(Cl)c2)c2ccccc21 (configuration not stated) [Indatraline] | 2.88 |
| C=CC(C)(O)CCC=C(C)C (configuration not stated) [Linalool] | 0.97 |
| O=P(O)(O)OCC(O)C(O)C(O)C(O)CO (configuration not stated) [Sorbitol-6-phosphate] | 9.75 |
| CNC(=C[N+](=O)[O-])NCCSCc1csc(CN(C)C)n1 [Nizatidine] | 4.65 |
| CC12CCC3C(CCC4CC(O)CCC43C)C1CCC2O (configuration not stated) [Androstane-3,17-diol] | 0.96 |
| COc1ccc(CN2CCN(C(c3ccc(F)cc3)c3ccc(F)cc3)CC2)c(OC)c1OC [Lomerizine] | 1.7 |
